Source: ChEMBL document CHEMBL5291721, “A preclinical secondary pharmacology resource illuminates target-adverse drug reaction associations of marketed drugs” (Nat Commun, 2023)

Assays:
Adenosine receptor A1 = molecular target: T1, Adenosine receptor A1 (Homo sapiens, UniProt P30542)
T1 sequence (P30542 whole entry): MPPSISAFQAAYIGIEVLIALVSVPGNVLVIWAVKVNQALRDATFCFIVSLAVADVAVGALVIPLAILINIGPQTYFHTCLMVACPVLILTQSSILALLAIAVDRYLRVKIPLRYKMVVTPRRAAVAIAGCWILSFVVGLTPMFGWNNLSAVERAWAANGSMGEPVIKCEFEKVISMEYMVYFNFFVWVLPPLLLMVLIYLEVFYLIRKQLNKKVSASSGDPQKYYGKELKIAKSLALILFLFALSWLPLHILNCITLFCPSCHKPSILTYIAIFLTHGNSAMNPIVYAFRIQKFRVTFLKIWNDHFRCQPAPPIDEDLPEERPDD

[1] = molecular target: Beta-2 adrenergic receptor (Homo sapiens, UniProt P07550)
[2] = molecular target: T2, Type-1 angiotensin II receptor (Homo sapiens, UniProt P30556)
T2 sequence (P30556 whole entry): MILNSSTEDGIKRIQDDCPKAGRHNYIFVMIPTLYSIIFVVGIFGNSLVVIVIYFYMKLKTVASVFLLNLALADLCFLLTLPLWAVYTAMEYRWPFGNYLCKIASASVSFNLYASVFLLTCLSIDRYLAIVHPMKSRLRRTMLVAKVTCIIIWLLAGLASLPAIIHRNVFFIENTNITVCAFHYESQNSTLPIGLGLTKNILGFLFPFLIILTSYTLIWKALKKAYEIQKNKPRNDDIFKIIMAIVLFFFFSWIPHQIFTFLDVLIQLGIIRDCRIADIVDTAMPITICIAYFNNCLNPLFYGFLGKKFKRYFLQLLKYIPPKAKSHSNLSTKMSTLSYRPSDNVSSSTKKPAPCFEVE

[3] = molecular target: Voltage-dependent L-type calcium channel subunit alpha-1C (Rattus norvegicus, UniProt P22002); type: functional
[4] = molecular target: T3, Muscarinic acetylcholine receptor M1 (Homo sapiens, UniProt P11229); type: functional
T3 sequence (P11229 whole entry): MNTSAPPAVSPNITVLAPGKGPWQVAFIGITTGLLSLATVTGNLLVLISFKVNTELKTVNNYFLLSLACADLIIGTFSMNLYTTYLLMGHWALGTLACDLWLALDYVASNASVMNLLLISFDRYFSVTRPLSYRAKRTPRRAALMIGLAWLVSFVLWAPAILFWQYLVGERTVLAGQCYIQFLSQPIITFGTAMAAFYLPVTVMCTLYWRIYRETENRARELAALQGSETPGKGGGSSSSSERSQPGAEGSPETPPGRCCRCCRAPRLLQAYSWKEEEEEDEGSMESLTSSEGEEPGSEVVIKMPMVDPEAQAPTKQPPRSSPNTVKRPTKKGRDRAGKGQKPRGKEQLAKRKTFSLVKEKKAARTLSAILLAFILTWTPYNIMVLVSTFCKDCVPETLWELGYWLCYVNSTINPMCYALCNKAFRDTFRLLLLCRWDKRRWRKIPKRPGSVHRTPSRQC

Cannabinoid receptor 1 = Cannabinoid receptor 1 (Homo sapiens, UniProt P21554)
[5] = molecular target: T4, 5-hydroxytryptamine receptor 2C (Homo sapiens, UniProt P28335)
T4 sequence (P28335 whole entry): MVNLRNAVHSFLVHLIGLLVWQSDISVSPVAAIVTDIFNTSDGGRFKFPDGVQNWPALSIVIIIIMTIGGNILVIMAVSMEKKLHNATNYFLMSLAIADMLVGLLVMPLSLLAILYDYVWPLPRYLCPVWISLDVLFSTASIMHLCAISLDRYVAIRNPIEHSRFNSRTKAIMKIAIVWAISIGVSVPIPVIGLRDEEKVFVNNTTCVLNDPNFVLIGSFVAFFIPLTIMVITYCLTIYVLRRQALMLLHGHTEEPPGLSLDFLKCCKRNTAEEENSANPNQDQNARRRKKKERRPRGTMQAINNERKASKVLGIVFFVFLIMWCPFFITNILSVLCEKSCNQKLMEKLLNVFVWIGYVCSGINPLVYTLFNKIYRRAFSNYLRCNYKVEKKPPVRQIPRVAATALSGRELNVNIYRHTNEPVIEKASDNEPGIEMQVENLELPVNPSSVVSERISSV

[6] = molecular target: T5, 5-hydroxytryptamine receptor 3A (Homo sapiens, UniProt P46098); type: functional
T5 sequence (P46098 whole entry): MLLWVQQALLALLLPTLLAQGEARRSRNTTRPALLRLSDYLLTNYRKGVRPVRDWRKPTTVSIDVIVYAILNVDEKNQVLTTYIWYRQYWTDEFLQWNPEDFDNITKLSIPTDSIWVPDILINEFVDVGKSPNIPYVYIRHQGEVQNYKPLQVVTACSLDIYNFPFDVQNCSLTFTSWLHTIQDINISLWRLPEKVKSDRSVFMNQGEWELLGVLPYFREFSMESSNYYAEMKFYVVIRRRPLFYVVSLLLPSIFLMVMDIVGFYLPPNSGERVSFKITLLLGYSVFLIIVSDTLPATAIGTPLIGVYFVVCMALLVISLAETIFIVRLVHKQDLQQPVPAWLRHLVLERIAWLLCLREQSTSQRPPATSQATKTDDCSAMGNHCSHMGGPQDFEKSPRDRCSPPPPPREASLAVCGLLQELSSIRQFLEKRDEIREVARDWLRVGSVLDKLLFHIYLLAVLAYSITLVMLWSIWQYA

[7] = molecular target: 3',5'-cyclic-AMP phosphodiesterase 4D (Homo sapiens, UniProt Q08499); type: functional
[8] = molecular target: Sodium-dependent noradrenaline transporter (Homo sapiens, UniProt P23975)
Mu-type opioid receptor = Mu-type opioid receptor (Homo sapiens, UniProt P35372)
D(3) dopamine receptor = D(3) dopamine receptor (Homo sapiens, UniProt P35462)
Histamine H3 receptor = Histamine H3 receptor (Homo sapiens, UniProt Q9Y5N1)
Note: assay procedure not described here.

Sequence of Mu-type opioid receptor (P35372 whole entry): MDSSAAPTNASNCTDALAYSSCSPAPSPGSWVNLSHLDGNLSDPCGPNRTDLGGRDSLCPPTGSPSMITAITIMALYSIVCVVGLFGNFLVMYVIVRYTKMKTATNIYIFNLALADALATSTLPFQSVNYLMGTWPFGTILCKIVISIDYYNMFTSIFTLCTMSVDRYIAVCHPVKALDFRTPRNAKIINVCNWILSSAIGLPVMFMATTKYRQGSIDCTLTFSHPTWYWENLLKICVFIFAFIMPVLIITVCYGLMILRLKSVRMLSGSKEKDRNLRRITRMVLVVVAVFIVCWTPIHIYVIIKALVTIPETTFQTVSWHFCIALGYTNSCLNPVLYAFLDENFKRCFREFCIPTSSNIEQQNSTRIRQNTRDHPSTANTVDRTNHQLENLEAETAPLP
Sequence of D(3) dopamine receptor (P35462 whole entry): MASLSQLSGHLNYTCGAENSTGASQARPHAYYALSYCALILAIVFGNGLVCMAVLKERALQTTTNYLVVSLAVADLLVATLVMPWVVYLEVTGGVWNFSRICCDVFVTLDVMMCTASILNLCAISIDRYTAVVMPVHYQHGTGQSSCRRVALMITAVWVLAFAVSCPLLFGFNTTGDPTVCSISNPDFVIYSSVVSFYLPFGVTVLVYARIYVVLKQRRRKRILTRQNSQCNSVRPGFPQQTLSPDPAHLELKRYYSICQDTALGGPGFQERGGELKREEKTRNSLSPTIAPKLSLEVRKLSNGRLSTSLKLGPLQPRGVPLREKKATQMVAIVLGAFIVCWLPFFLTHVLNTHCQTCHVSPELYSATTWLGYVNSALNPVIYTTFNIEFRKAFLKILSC
Sequence of Voltage-dependent L-type calcium channel subunit alpha-1C (P22002 whole entry): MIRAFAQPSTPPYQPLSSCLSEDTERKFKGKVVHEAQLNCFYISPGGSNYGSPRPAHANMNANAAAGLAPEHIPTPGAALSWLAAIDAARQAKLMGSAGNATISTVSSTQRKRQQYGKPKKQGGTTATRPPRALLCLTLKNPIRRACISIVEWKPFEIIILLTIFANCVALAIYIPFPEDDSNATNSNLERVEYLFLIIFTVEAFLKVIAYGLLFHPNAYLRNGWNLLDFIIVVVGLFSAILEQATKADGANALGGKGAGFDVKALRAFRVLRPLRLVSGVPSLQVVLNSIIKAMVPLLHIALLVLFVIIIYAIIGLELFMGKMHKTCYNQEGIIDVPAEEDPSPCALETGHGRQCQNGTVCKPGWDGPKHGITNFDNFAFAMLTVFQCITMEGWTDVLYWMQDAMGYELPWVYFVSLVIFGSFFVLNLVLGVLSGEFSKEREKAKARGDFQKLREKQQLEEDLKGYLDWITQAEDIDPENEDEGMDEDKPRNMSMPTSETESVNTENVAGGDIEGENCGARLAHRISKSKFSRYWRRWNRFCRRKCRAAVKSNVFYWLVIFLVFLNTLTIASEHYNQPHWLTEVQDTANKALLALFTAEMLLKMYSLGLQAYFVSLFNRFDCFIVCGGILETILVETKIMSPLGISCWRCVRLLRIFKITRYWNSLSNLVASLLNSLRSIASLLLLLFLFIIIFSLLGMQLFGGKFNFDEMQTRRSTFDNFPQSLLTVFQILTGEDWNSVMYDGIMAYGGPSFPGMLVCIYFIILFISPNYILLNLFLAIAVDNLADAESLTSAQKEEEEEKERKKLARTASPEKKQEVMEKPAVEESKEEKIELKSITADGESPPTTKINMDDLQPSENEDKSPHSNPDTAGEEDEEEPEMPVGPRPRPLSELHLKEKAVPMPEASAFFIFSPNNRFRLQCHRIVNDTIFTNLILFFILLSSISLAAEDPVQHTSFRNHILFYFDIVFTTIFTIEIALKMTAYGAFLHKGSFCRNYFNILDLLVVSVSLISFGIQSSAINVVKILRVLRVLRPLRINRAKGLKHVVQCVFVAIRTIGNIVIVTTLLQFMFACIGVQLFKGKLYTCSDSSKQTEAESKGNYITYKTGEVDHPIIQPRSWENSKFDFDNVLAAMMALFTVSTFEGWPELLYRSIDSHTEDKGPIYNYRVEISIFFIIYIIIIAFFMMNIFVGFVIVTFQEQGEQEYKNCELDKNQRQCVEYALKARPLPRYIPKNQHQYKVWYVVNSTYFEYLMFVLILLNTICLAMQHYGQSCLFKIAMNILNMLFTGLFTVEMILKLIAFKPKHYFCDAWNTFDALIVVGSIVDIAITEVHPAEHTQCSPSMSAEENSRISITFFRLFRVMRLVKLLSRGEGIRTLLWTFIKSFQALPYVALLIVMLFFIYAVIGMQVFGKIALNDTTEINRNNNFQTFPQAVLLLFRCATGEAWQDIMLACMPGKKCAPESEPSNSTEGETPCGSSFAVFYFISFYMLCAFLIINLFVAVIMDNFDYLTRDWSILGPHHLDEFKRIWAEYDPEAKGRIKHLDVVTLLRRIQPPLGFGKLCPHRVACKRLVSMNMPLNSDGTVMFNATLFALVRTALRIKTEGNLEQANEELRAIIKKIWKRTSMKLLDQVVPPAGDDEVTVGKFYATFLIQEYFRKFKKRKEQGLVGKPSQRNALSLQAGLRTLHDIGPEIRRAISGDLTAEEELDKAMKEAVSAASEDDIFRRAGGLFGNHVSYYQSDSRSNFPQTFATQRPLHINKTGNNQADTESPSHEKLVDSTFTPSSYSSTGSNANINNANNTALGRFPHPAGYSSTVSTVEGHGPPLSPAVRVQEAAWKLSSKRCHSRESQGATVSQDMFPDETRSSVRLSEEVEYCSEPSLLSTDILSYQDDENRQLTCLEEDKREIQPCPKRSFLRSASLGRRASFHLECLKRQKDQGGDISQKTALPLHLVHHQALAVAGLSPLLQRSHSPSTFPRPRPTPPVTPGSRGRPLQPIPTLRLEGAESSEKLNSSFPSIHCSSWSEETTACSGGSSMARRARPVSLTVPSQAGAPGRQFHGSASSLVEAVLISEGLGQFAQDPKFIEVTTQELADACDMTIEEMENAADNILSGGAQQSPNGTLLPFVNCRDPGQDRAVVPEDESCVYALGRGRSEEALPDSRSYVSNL
Sequence of Histamine H3 receptor (Q9Y5N1 whole entry): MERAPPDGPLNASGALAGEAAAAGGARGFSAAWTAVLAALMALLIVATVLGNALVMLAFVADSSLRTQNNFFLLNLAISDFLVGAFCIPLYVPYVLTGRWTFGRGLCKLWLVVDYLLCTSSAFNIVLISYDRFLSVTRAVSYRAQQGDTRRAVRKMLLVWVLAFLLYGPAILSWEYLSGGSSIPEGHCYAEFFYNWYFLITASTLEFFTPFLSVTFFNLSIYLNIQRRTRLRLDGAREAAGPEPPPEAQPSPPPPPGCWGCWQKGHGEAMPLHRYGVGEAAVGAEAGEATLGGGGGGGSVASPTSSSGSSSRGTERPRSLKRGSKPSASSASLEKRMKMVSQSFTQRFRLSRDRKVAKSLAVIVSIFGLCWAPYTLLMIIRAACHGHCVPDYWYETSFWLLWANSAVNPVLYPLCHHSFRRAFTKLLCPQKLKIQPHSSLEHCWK
Sequence of Sodium-dependent noradrenaline transporter (P23975 whole entry): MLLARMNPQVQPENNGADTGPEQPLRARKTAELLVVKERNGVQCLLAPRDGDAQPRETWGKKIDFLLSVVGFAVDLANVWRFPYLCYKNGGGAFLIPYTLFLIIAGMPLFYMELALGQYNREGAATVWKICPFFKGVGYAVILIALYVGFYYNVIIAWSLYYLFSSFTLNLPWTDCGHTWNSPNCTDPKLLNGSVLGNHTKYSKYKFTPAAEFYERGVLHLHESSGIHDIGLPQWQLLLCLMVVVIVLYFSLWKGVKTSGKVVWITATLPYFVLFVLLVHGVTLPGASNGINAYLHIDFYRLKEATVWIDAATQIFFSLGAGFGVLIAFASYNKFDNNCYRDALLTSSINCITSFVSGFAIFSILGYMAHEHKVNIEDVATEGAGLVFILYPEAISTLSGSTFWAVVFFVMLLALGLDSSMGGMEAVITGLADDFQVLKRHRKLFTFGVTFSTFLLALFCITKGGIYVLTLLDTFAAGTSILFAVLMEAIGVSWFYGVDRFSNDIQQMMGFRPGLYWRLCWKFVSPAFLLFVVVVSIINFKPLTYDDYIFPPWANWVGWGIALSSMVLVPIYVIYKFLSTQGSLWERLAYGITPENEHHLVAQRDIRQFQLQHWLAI
Sequence of 3',5'-cyclic-AMP phosphodiesterase 4D (Q08499 whole entry): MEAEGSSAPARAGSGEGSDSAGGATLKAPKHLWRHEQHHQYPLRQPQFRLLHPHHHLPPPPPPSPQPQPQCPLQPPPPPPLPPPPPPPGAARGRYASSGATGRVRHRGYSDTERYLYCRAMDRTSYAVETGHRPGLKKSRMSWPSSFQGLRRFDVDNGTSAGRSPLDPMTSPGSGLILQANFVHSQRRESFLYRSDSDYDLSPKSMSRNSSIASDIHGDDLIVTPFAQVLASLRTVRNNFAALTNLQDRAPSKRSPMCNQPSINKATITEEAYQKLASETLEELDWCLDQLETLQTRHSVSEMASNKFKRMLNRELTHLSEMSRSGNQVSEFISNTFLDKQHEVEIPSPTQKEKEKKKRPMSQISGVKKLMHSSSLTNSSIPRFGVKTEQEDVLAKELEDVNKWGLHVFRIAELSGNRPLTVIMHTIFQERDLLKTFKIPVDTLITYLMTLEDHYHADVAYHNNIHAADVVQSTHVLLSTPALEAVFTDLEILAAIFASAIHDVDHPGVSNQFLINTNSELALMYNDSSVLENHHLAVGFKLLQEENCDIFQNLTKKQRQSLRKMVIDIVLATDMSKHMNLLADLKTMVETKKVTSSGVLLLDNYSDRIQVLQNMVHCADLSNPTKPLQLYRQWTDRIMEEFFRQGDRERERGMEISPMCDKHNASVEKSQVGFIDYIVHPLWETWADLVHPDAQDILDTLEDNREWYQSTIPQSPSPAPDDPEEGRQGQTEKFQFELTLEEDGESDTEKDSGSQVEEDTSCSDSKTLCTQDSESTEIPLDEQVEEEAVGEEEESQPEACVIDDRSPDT

In the case of `CC(C[N+](C)(C)C)OC(N)=O` (stereo not drawn) [BETHANECHOL], the AC50 (Adenosine receptor A1) is reported as greater than 10 µM, the AC50 [1] is reported as greater than 10 µM and the AC50 [2] is reported as greater than 10 µM. The AC50 [3] was greater than 10 µM, the AC50 [4] was greater than 10 µM and the AC50 (Cannabinoid receptor 1) was greater than 10 µM. It also gave an AC50 [5] greater than 30 µM, an AC50 [6] greater than 30 µM and an AC50 [7] greater than 30 µM. It also gave an AC50 [8] greater than 10 µM, an AC50 (Mu-type opioid receptor) greater than 30 µM and an AC50 (D(3) dopamine receptor) greater than 30 µM. It also gave an AC50 (Histamine H3 receptor) greater than 10 µM.

In the case of `CC1(C)O[C@@H]2C[C@H]3[C@@H]4CCC5=CC(=O)C=C[C@]5(C)[C@H]4[C@@H](O)C[C@]3(C)[C@]2(C(=O)CO)O1` [DESONIDE], the AC50 (Adenosine receptor A1) is reported as greater than 10 µM, the AC50 [1] is reported as greater than 10 µM and the AC50 [2] is reported as greater than 30 µM. The AC50 [3] was greater than 10 µM, the AC50 [4] was greater than 10 µM and the AC50 (Cannabinoid receptor 1) was greater than 10 µM. For the same compound, the AC50 [5] was greater than 30 µM, the AC50 [6] was greater than 30 µM and the AC50 [7] was greater than 30 µM. It also gave an AC50 [8] greater than 10 µM, an AC50 (Mu-type opioid receptor) greater than 30 µM and an AC50 (D(3) dopamine receptor) greater than 30 µM.

For `CCCCc1ncc(/C=C(\Cc2cccs2)C(=O)O)n1Cc1ccc(C(=O)O)cc1` [EPROSARTAN], the AC50 (Adenosine receptor A1) was greater than 10 µM, the AC50 [1] was greater than 10 µM and the AC50 [2] was 0.0019 µM. The AC50 [3] was greater than 10 µM, the AC50 [4] was greater than 10 µM and the AC50 (Cannabinoid receptor 1) was greater than 10 µM. It also gave an AC50 [5] greater than 10 µM, an AC50 [6] greater than 10 µM and an AC50 [7] greater than 10 µM. For the same compound, the AC50 [8] was greater than 30 µM, the AC50 (Mu-type opioid receptor) was greater than 10 µM and the AC50 (D(3) dopamine receptor) was greater than 10 µM. The AC50 (Histamine H3 receptor) was greater than 10 µM.

`CCc1c(Cl)c(O)c(Cl)c(O)c1C(=O)O[C@H]1[C@H](O)[C@H](OC)[C@H](OC/C2=C\C=C\C[C@H](O)/C(C)=C/[C@H](CC)[C@@H](O[C@@H]3OC(C)(C)[C@@H](OC(=O)C(C)C)[C@H](O)[C@@H]3O)/C(C)=C/C(C)=C/C[C@@H]([C@@H](C)O)OC2=O)O[C@@H]1C` [FIDAXOMICIN] gave an AC50 (Adenosine receptor A1) greater than 30 µM, an AC50 [1] greater than 10 µM and an AC50 [2] greater than 30 µM. The AC50 [3] was greater than 10 µM, the AC50 [4] was greater than 30 µM and the AC50 (Cannabinoid receptor 1) was greater than 10 µM. For the same compound, the AC50 [5] was greater than 30 µM, the AC50 [6] was greater than 10 µM and the AC50 [7] was greater than 30 µM. The AC50 [8] was greater than 30 µM, the AC50 (Mu-type opioid receptor) was greater than 10 µM and the AC50 (D(3) dopamine receptor) was greater than 30 µM. It also gave an AC50 (Histamine H3 receptor) greater than 10 µM.

`CCCC(=O)O[C@]1(C(=O)CO)CC[C@H]2[C@@H]3CCC4=CC(=O)CC[C@]4(C)[C@H]3[C@@H](O)C[C@@]21C` [HYDROCORTISONE BUTYRATE] showed an AC50 (Adenosine receptor A1) greater than 10 µM, an AC50 [1] greater than 10 µM and an AC50 [2] greater than 10 µM. For the same compound, the AC50 [3] was greater than 10 µM, the AC50 [4] was greater than 10 µM and the AC50 (Cannabinoid receptor 1) was greater than 10 µM. The AC50 [5] was greater than 30 µM, the AC50 [6] was greater than 30 µM and the AC50 [7] was greater than 30 µM. It also gave an AC50 [8] greater than 10 µM, an AC50 (Mu-type opioid receptor) greater than 30 µM and an AC50 (D(3) dopamine receptor) greater than 30 µM.

In the case of `CC(C)(C)c1cc(C(C)(C)C)c(NC(=O)c2c[nH]c3ccccc3c2=O)cc1O` [IVACAFTOR], the AC50 (Adenosine receptor A1) is reported as greater than 30 µM, the AC50 [1] is reported as greater than 10 µM and the AC50 [2] is reported as 26.9 µM. The AC50 [3] was greater than 10 µM, the AC50 [4] was greater than 10 µM and the AC50 (Cannabinoid receptor 1) was greater than 10 µM. The AC50 [5] was greater than 30 µM, the AC50 [6] was greater than 30 µM and the AC50 [7] was greater than 30 µM. The AC50 [8] was 6.5 µM, the AC50 (Mu-type opioid receptor) was greater than 30 µM and the AC50 (D(3) dopamine receptor) was greater than 30 µM. For the same compound, the AC50 (Histamine H3 receptor) was greater than 10 µM.

For `O=C(O)[C@H](CC(=O)N1C[C@H]2CCCC[C@H]2C1)Cc1ccccc1` [MITIGLINIDE], the AC50 (Adenosine receptor A1) was greater than 10 µM, the AC50 [1] was greater than 10 µM and the AC50 [2] was greater than 10 µM. It also gave an AC50 [3] greater than 10 µM, an AC50 [4] greater than 10 µM and an AC50 (Cannabinoid receptor 1) greater than 10 µM. For the same compound, the AC50 [5] was greater than 30 µM, the AC50 [6] was greater than 30 µM and the AC50 [7] was greater than 30 µM. It also gave an AC50 [8] greater than 10 µM, an AC50 (Mu-type opioid receptor) greater than 30 µM and an AC50 (D(3) dopamine receptor) greater than 30 µM.
